“And” between values parts separate entries of the source, which are not always exact repeats. Equal values may be shown once. Toxic doses and inconclusive results are not listed. How the source made its calls: active means survival T/C of 150% or more; inactive means T/C below 125% in these data.
Test system: CD2F1 mice, L1210 leukemia ip, survival T/C
Assay: NCI In Vivo Anticancer Drug Screen. Data for tumor model L1210 Leukemia (intraperitoneal) in CD2F1 (CDF1) mice
Details: higher = longer survival
How it was run: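 Ratio T/C, where T is the treated-group value and C the vehicle-dosed control value, from mice implanted with a transplantable tumor.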

[1] = endpoint: mean survival time, dose: 100.0 mg/kg/injection, schedule: Q04DX003 (ip), vehicle: saline with Tween-80
[2] = endpoint: mean survival time, dose: 200.0 mg/kg/injection, schedule: Q04DX003 (ip), vehicle: saline with Tween-80
[3] = endpoint: mean survival time, dose: 400.0 mg/kg/injection, schedule: Q04DX003 (ip), vehicle: saline with Tween-80
[4] = endpoint: mean survival time, dose: 50.0 mg/kg/injection, schedule: Q01DX009 (ip), vehicle: saline with Tween-80
[5] = endpoint: mean survival time, dose: 100.0 mg/kg/injection, schedule: Q01DX009 (ip), vehicle: saline with Tween-80
[6] = endpoint: mean survival time, dose: 200.0 mg/kg/injection, schedule: Q01DX009 (ip), vehicle: saline with Tween-80
[7] = endpoint: mean survival time, dose: 400.0 mg/kg/injection, schedule: Q01DX009 (ip), vehicle: saline with Tween-80
[8] = endpoint: mean survival time, dose: 100.0 mg/kg/injection, schedule: Q01DX001 (ip), vehicle: saline
[9] = endpoint: mean survival time, dose: 12.5 mg/kg/injection, schedule: Q01DX009 (ip), vehicle: saline with Tween-80
[10] = endpoint: mean survival time, dose: 6.25 mg/kg/injection, schedule: Q01DX009 (ip), vehicle: saline with Tween-80

Measured: T/C

CCOC(=O)c1ccc(N)c(C(O)(C(F)(F)F)C(F)(F)F)c1
inactive: [1] 103 % of control | [2] 97 % of control | [3] 97 % of control

CC(C)c1ccc(NC(=O)Nc2cccc3ccccc23)cc1
inactive: [1] 102 % of control | [2] 91 % of control | [3] 91 % of control

C=C1CCCCC1C(C(=O)O)(c1ccccc1)c1ccccc1 (stereo not drawn)
inactive: [1] 102 % of control | [2] 102 % of control | [3] 100 % of control

CCCCC(CC)CO.[Ti] (stereo not drawn)
inactive: [4] 103 % of control | [5] 106 % of control | [6] 97 % of control

O=C(O)c1ccc([As](=O)(O)O)cc1
inactive: endpoint: mean survival time, dose: 6.25 mg/kg/injection, schedule: Q01DX009 (ip), vehicle: Klucel (hydroxypropylcellulose) (HPC) 102 % of control | endpoint: mean survival time, dose: 12.5 mg/kg/injection, schedule: Q01DX009 (ip), vehicle: Klucel (hydroxypropylcellulose) (HPC) 98 % of control | endpoint: mean survival time, dose: 25.0 mg/kg/injection, schedule: Q01DX009 (ip), vehicle: Klucel (hydroxypropylcellulose) (HPC) 87 % of control and 92 % of control

O=c1nc(NCc2ccco2)ccn1C1OC(CO)C(O)C1O (stereo not drawn)
inactive: endpoint: median survival time, dose: 12.5 mg/kg/injection, schedule: Q01DX005 (ip), vehicle: water 98 % of control | endpoint: median survival time, dose: 25.0 mg/kg/injection, schedule: Q01DX005 (ip), vehicle: water 106 % of control | endpoint: median survival time, dose: 50.0 mg/kg/injection, schedule: Q01DX005 (ip), vehicle: water 112 % of control | endpoint: median survival time, dose: 100.0 mg/kg/injection, schedule: Q01DX005 (ip), vehicle: water 112 % of control | endpoint: median survival time, dose: 200.0 mg/kg/injection, schedule: Q01DX005 (ip), vehicle: water 108 % of control

CCCC[NH-].CCCC[NH-].O=C(O)CC(=O)O.[Pt+2]
inactive: endpoint: mean survival time, dose: 6.25 mg/kg/injection, schedule: Q04DX003 (ip), vehicle: saline with Tween-80 96 % of control | endpoint: mean survival time, dose: 25.0 mg/kg/injection, schedule: Q04DX003 (ip), vehicle: saline with Tween-80 96 % of control | [1] 98 % of control

COC(=O)CCC([NH-])C(=O)O.COC(=O)CCC([NH-])C(=O)O.[NH-]C1CCCCC1[NH-].[Pt+4] (stereo not drawn)
inactive: endpoint: median survival time, dose: 6.25 mg/kg/injection, schedule: Q04DX003 (ip), vehicle: saline 100 % of control | endpoint: median survival time, dose: 12.5 mg/kg/injection, schedule: Q04DX003 (ip), vehicle: saline 96 % of control | endpoint: median survival time, dose: 25.0 mg/kg/injection, schedule: Q04DX003 (ip), vehicle: saline 97 % of control | endpoint: median survival time, dose: 50.0 mg/kg/injection, schedule: Q04DX003 (ip), vehicle: saline 108 % of control | endpoint: median survival time, dose: 100.0 mg/kg/injection, schedule: Q04DX003 (ip), vehicle: saline 110 % of control

CNc1nc(N)nc(CN2CCOCC2c2ccccn2)n1 (stereo not drawn)
inactive: endpoint: mean survival time, dose: 100.0 mg/kg/injection, schedule: Q04DX002 (ip), vehicle: saline 88 % of control | endpoint: mean survival time, dose: 200.0 mg/kg/injection, schedule: Q04DX002 (ip), vehicle: saline 114 % of control | endpoint: mean survival time, dose: 400.0 mg/kg/injection, schedule: Q04DX002 (ip), vehicle: saline 96 % of control

O=C(CCCCC(=O)N/N=C/c1cccc([N+](=O)[O-])c1)N/N=C/c1cccc([N+](=O)[O-])c1
inactive: [5] 87 % of control | [6] 87 % of control | [7] 90 % of control

CN(C)c1ccc(Cc2ccc(N(C)C)cc2)cc1
inactive: [1] 96 % of control | [2] 100 % of control | [3] 93 % of control

CCCCCCCCCCCCC(=O)O.[Pb]
inactive: endpoint: mean survival time, dose: 75.0 mg/kg/injection, schedule: Q01DX001 (ip), vehicle: other 107 % of control | endpoint: mean survival time, dose: 150.0 mg/kg/injection, schedule: Q01DX001 (ip), vehicle: other 104 % of control | endpoint: mean survival time, dose: 300.0 mg/kg/injection, schedule: Q01DX001 (ip), vehicle: other 97 % of control

Nc1nc(N)c2c(n1)NCN(CCc1c(Cl)cccc1Cl)C2
inactive: endpoint: mean survival time, dose: 0.75 mg/kg/injection, schedule: Q01DX009 (ip), vehicle: distilled water + Tween-80 98 % of control | endpoint: mean survival time, dose: 1.5 mg/kg/injection, schedule: Q01DX009 (ip), vehicle: distilled water + Tween-80 102 % of control | endpoint: mean survival time, dose: 3.0 mg/kg/injection, schedule: Q01DX009 (ip), vehicle: distilled water + Tween-80 98 % of control | endpoint: mean survival time, dose: 6.0 mg/kg/injection, schedule: Q01DX009 (ip), vehicle: distilled water + Tween-80 98 % of control | endpoint: mean survival time, dose: 12.0 mg/kg/injection, schedule: Q01DX009 (ip), vehicle: distilled water + Tween-80 104 % of control | endpoint: mean survival time, dose: 24.0 mg/kg/injection, schedule: Q01DX009 (ip), vehicle: distilled water + Tween-80 98 % of control | endpoint: mean survival time, dose: 37.5 mg/kg/injection, schedule: Q01DX009 (ip), vehicle: distilled water + Tween-80 100 % of control | endpoint: mean survival time, dose: 75.0 mg/kg/injection, schedule: Q01DX009 (ip), vehicle: distilled water + Tween-80 97 % of control

O=C(CCl)OCc1ccc([N+](=O)[O-])o1
inactive: [1] 98 % of control | [2] 101 % of control

CSC(=S)N(C)/N=C/c1ccccn1
inactive: [5] 98 % of control | [6] 96 % of control

Oc1ccccc1/C=N/c1nc2ccc(Cl)cc2s1.Oc1ccccc1/C=N/c1nc2ccc(Cl)cc2s1.[Zn]
inactive: endpoint: mean survival time, dose: 25.0 mg/kg/injection, schedule: Q01DX001 (ip), vehicle: saline 96 % of control | endpoint: mean survival time, dose: 50.0 mg/kg/injection, schedule: Q01DX001 (ip), vehicle: saline 91 % of control | [8] 87 % of control

CN=C(c1ccccc1)C1(O)CC2CCC1C2 (stereo not drawn)
inactive: [8] 101 % of control | endpoint: mean survival time, dose: 200.0 mg/kg/injection, schedule: Q01DX001 (ip), vehicle: saline 98 % of control | endpoint: mean survival time, dose: 400.0 mg/kg/injection, schedule: Q01DX001 (ip), vehicle: saline 101 % of control

N#CC(CC(=O)c1ccc(-c2ccccc2)cc1)c1ccccc1 (stereo not drawn)
inactive: [1] 91 % of control | [2] 91 % of control | [3] 95 % of control

CCNC(=S)NN
inactive: [9] 100 % of control

Nc1nc2c(nc(N3CCCC3)n2C2OC(CO)C(O)C2O)c(=O)[nH]1 (stereo not drawn)
inactive: endpoint: mean survival time, dose: 12.5 mg/kg/injection, schedule: Q01DX005 (ip), vehicle: distilled water + Tween-80 100 % of control | endpoint: mean survival time, dose: 25.0 mg/kg/injection, schedule: Q01DX005 (ip), vehicle: distilled water + Tween-80 102 % of control | endpoint: mean survival time, dose: 50.0 mg/kg/injection, schedule: Q01DX005 (ip), vehicle: distilled water + Tween-80 98 % of control | endpoint: mean survival time, dose: 100.0 mg/kg/injection, schedule: Q01DX005 (ip), vehicle: distilled water + Tween-80 100 % of control | endpoint: mean survival time, dose: 200.0 mg/kg/injection, schedule: Q01DX005 (ip), vehicle: distilled water + Tween-80 100 % of control

NC(CCNCCc1ccccc1)CNCCc1ccccc1 (stereo not drawn)
inactive: endpoint: mean survival time, dose: 75.0 mg/kg/injection, schedule: Q01DX001 (ip), vehicle: saline 107 % of control | endpoint: mean survival time, dose: 150.0 mg/kg/injection, schedule: Q01DX001 (ip), vehicle: saline 92 % of control

CC(=O)NC1C(O)C(NC(C)=O)C(OC(C)=O)C(OC(C)=O)C1OC(C)=O (stereo not drawn)
inactive: [5] 95 % of control | [6] 103 % of control | [7] 103 % of control

[Cl][Pt+2][Cl].[NH-]CC([NH-])CN
inactive: endpoint: mean survival time, dose: 0.39 mg/kg/injection, schedule: Q04DX003 (ip), vehicle: saline 89 % of control | endpoint: mean survival time, dose: 0.78 mg/kg/injection, schedule: Q04DX003 (ip), vehicle: saline 97 % of control | endpoint: mean survival time, dose: 1.56 mg/kg/injection, schedule: Q04DX003 (ip), vehicle: saline 103 % of control | endpoint: mean survival time, dose: 3.12 mg/kg/injection, schedule: Q04DX003 (ip), vehicle: saline 103 % of control | endpoint: mean survival time, dose: 6.25 mg/kg/injection, schedule: Q04DX003 (ip), vehicle: saline 111 % of control | endpoint: mean survival time, dose: 12.5 mg/kg/injection, schedule: Q04DX003 (ip), vehicle: saline 109 % of control

Cc1ccc(-c2cc(-c3ccccc3)n(-c3ccccc3)n2)cc1
inactive: [1] 101 % of control | [2] 100 % of control | [3] 95 % of control

CC(C)N1C(=O)C=C(c2ccc([N+](=O)[O-])cc2)C1=O
inactive: [10] 93 % of control | [9] 95 % of control | endpoint: mean survival time, dose: 25.0 mg/kg/injection, schedule: Q01DX009 (ip), vehicle: saline with Tween-80 95 % of control | [4] 95 % of control

Cc1ccc(S(=O)(=O)CCCCl)cc1
inactive: endpoint: mean survival time, dose: 50.0 mg/kg/injection, schedule: Q01DX009 (ip), vehicle: Klucel (hydroxypropylcellulose) (HPC) 111 % of control | endpoint: mean survival time, dose: 100.0 mg/kg/injection, schedule: Q01DX009 (ip), vehicle: Klucel (hydroxypropylcellulose) (HPC) 95 % of control | endpoint: mean survival time, dose: 200.0 mg/kg/injection, schedule: Q01DX009 (ip), vehicle: Klucel (hydroxypropylcellulose) (HPC) 100 % of control

CCCCCCCCCCCC(=O)[O][Pb]([CH2]C)([CH2]C)[CH2]C
inactive: endpoint: mean survival time, dose: 3.13 mg/kg/injection, schedule: Q01DX009 (ip), vehicle: saline with Tween-80 87 % of control | [10] 104 % of control

C(CN1CCOCC1)CN1CN(CCCN2CCOCC2)CN(CCCN2CCOCC2)C1
inactive: [1] 106 % of control | [2] 101 % of control | [3] 113 % of control

— PubChem BioAssay AID256 (DTP/NCI, 2004)
